Assay type in all cases: cell-based
Experiment [1] concerns T47D cells expressing mutant PI3Ka (H1047R). The experiment in a line: In vitro cell proliferation, T47D cells (CellTiter-Glo). As to conditions: inhibition of proliferation, 72 hours, read-out: Avg T-47D EC50. As for the experimental part:
(§1) In Vitro Cell Proliferation: Determination of EC50 Values for Inhibition of Proliferation in T47D Cells Expressing Mutant PI3Ka (H1047R) Mutation and SKBR3 Cells Express WT PI3Ka.
(§2) T47D or SKBR3 cells were trypsinized, resuspended in culture media and seeded onto assay ready plates. T47D culture media consisted of RPMI, 10% FBS and Insulin (0.2 units/mL). SKBR3 culture media consisted of McCoys 5a and 10% FBS. Cells were seeded at a density of 1,500 cells/well and dispensed in 50 μl onto 384 well assay ready plates (Corning, 89089-790). Assay ready plates had previously been stamped with 10-point dilutions of compounds of interest, as well as controls. The Echo655 is used to stamp plates at 40 nL of compound or DMSO. Cells were grown for 72 hours at 37° Celsius and 5% CO2. After 72 hours, cells were equilibrated at room temperature for 15 minutes. 30 μL of CellTiter-Glo reagent is added to the plate, which is then shaken for 30 minutes at temperature at 300-500 rpm. Cells are then read on an Envision plate reader. The percentage of inhibition of proliferation was calculated using the following formula: % Inhibition=100×(LumD−Lumsample)/(LumD−Lumlnh), where D is obtained from cells treated with 0.1% DMSO only; lnh is obtained from cells treated with 10 uM Alpelisib. The effective concentration achieving 50% inhibition of proliferation (EC50) is calculated by fitting the Curve using Xlfit (v5.3.1.3), equation 201: Y=Bottom+(Top−Bottom)/(1+10^((LogEC50−X)*HillSlope)).

In experiment [2] the test system is phosphorylation of AKT (pAKT) in T47D cells expressing mutant PI3Ka (H1047R). Kind of experiment: In vitro cell pAKT (Ser473) HTRF, T47D cells. As to conditions: cellular pAKT, T47D cells, mutant PI3Ka (H1047R), 6 hours, read-out: Avg T-47D IC50. How it is done:
(§3) In Vitro Cell pAKT: Determination of IC50 Values for Inhibition of Phosphorylation of AKT (pAKT) in T47D Cells Expressing Mutant PI3Ka (H1047R) Mutation and SKBR3 Cells Express WT PI3Ka.
(§4) T47D or SKBR3 cells were trypsinized, resuspended in culture media and seeded onto assay ready plates. T47D culture media consisted of RPMI, 10% FBS and Insulin (0.2 units/mL). SKBR3 culture media consisted of McCoy's 5a and 10% FBS. Cells were seeded at a density of 5000 cells/well and dispensed in 12.5 μL onto 384 well assay ready plates (Perkin Elmer, 6008238)). Assay ready plates had previously been stamped with 10-point dilutions of compounds of interest, as well as controls. The Echo655 is used to stamp plates at 12.5 nL of compound or DMSO. Cells were grown for 6 hours at 37° Celsius and 5% CO2. After 6 hours, 4 μL of Lysis buffer reagent was added to the plate, which was then centrifuged for 1 minute at 1000 rpm. Then the plate was incubated at room temperature for 30 minutes. After 30 minutes, 4 μL of antibody mix containing Eu Cryptate, d2 Cryptate, and detection buffer, was added to the plate. The plate was centrifuged for 1 minute at 1000 rpm and then incubated overnight at room temperature. The plate was read on an Envision plate reader using the HTRF protocol. The percentage of inhibition of AKT phosphorylation was calculated using the following formula: % Inhibition=100×(pAKTHC−pAKTSample)/(pAKTHC−pAKTLC)), where pAKTHC is obtained from cells treated with 0.1% DMSO only; PAKTLC is obtained from cells treated with 10 uM Alpelisib. The IC50 (concentration achieving 50% inhibition of pAKT) is calculated by fitting the Curve using XIfit (v5.3.1.3), equation 201: Y=Bottom+(Top−Bottom)/(1+10^((LogIC50−X)*HillSlope)).

For experiment [3], the system named is SKBR3 cells express WT PI3Ka. Kind of experiment: In vitro cell proliferation, SKBR3 cells (CellTiter-Glo). As to conditions: inhibition of proliferation. As for the experimental part: as §1, §2
Background: ATP-based viability assays read luminescence as a measure of living cells.

For experiment [4], the system named is phosphorylation of AKT (pAKT) in SKBR3 cells express WT PI3Ka. Kind of experiment: In vitro cell pAKT (Ser473) HTRF, SKBR3 cells. The note with it: cellular pAKT. How it is done:
as §3, §4
(In general: TR-FRET usually uses a lanthanide donor and a delayed reading to cut background.)

Our source for the EC50 and IC50 values is patent US20260078103A1, “ISOQUINOLONES AS PI3K INHIBITORS” (OnKure, Inc., priority 2022, published 2026).

Where two headings read alike, the source gives them in different places.

For orientation: EC50 means the concentration at which the effect is half-maximal. By IC50 is commonly meant the concentration at which inhibition is half-maximal.

On to `Cc1cc(C(C)Nc2ccccc2C(=O)O)c2cc(N3CCN(C)CC3)n(C)c(=O)c2c1` (single isomer, unassigned) [Example 13, 2-((1-(2,7-dimethyl-3-(4-methylpiperazin-1-yl)-1-oxo-1,2-dihydroisoquinolin-5-yl)ethyl)amino)benzoic acid], for which the results for the EC50 in experiment [1] and in experiment [3] (72 hours) were 0.5 to 2 µM and more than 15 µM, respectively. In addition, the half-inhibitory concentration (IC50) in experiment [2] is 0.5 to 2 µM; in experiment [4] (6 hours), more than 15 µM.

With `Cc1cc(C(C)Nc2ccccc2C(=O)O)c2cc(N3Cc4cccnc4C3)n(C)c(=O)c2c1` (single isomer, unassigned) [Example 18, 2-((1-(3-(5,7-dihydro-6H-pyrrolo[3,4-b]pyridin-6-yl)-2,7-dimethyl-1-oxo-1,2-dihydroisoquinolin-5-yl)ethyl)amino)benzoic acid], the concentration for a half-maximal effect (EC50) was 2 to 15 µM in experiment [1] and 2 to 15 µM in experiment [3] (Homo sapiens, SK-BR-3, 72 h). Moreover, the IC50 in experiment [2] was more than 15 µM; in experiment [4] (Homo sapiens, SK-BR-3, 6 h), more than 15 µM.

`Cc1cc(C(C)Nc2ccccc2C(=O)O)c2cc(N3Cc4cccnc4C3)n(C)c(=O)c2c1` (single isomer, unassigned) [Example 19, 2-((1-(3-(5,7-dihydro-6H-pyrrolo[3,4-b]pyridin-6-yl)-2,7-dimethyl-1-oxo-1,2-dihydroisoquinolin-5-yl)ethyl)amino)benzoic acid]: the EC50 in experiment [1] lay in the range of 0.001 to 0.5 µM; in experiment [3] (72 hours), 2 to 15 µM. The IC50 in experiment [2] is 0.001 to 0.5 µM; in experiment [4] (6 hours) it was more than 15 µM.

Regarding `Cc1cc(C(C)Nc2ccccc2C(=O)O)c2cc(-c3ccc(C)nc3)n(C)c(=O)c2c1` (single isomer, unassigned) [Example 20, 2-((1-(2,7-dimethyl-3-(6-methylpyridin-3-yl)-1-oxo-1,2-dihydroisoquinolin-5-yl)ethyl)amino)benzoic acid], the EC50 in experiment [1] was 2 to 15 µM; in experiment [3] (Homo sapiens, SK-BR-3, 72 h), more than 15 µM. In addition, the IC50 in experiment [2] is more than 15 µM; in experiment [4] (Homo sapiens, SK-BR-3, 6 h) it was more than 15 µM.

For the compound `Cc1cc(C(C)Nc2ccccc2C(=O)O)c2cc(-c3ccc(C)nc3)n(C)c(=O)c2c1` (single isomer, unassigned) [Example 21, 2-((1-(2,7-dimethyl-3-(6-methylpyridin-3-yl)-1-oxo-1,2-dihydroisoquinolin-5-yl)ethyl)amino)benzoic acid], the figures for the concentration giving a half-maximal response (EC50) in experiment [1] and in experiment [3] (72 hours) were 0.001 to 0.5 µM and more than 15 µM, respectively. In addition, the values for the IC50 in experiment [2] and in experiment [4] (6 hours) were 0.001 to 0.5 µM and more than 15 µM, respectively.

For the compound `Cc1cc(C(C)Nc2ccc(Cl)nc2C(=O)O)c2cc(C3=CCC(C)(C)CC3)n(C)c(=O)c2c1` (single isomer, unassigned) [Example 22, 6-chloro-3-((1-(3-(4,4-dimethylcyclohex-1-en-1-yl)-2,7-dimethyl-1-oxo-1,2-dihydroisoquinolin-5-yl)ethyl)amino)picolinic acid], the EC50 in experiment [1] was in the range of 2 to 15 µM; in experiment [3] (Homo sapiens, SK-BR-3, 72 h) it was 2 to 15 µM. The concentration for half-maximal inhibition (IC50) in experiment [2] is 2 to 15 µM; in experiment [4] (Homo sapiens, SK-BR-3, 6 h) it was more than 15 µM.

For the compound `Cc1cc(C(C)Nc2ccccc2C(=O)O)c2cc(N3C[C@H]4CN(CC(F)(F)F)C[C@H]4C3)n(C)c(=O)c2c1` (single isomer, unassigned) [Example 30], the EC50 in experiment [1] is 2 to 15 µM; in experiment [3] (Homo sapiens, SK-BR-3, 72 h), 2 to 15 µM. Besides, the half-inhibitory concentration (IC50) was more than 15 µM in experiment [2] and more than 15 µM in experiment [4] (Homo sapiens, SK-BR-3, 6 h).

As to `Cc1cc(C(C)Nc2ccccc2C(=O)O)c2cc(N3C[C@H]4CN(CC(F)(F)F)C[C@H]4C3)n(C)c(=O)c2c1` (single isomer, unassigned) [Example 31], the half-maximal effective concentration (EC50) in experiment [1] fell in the range of 0.001 to 0.5 µM; in experiment [3] (72 hours) it was 2 to 15 µM. Further, the IC50 is 0.001 to 0.5 µM in experiment [2] and more than 15 µM in experiment [4] (6 hours).

As for `Cc1cc(C(C)Nc2ccccc2C(=O)O)c2cc(N3CCN(C(=O)CC(C)C)CC3)n(C)c(=O)c2c1` (single isomer, unassigned) [Example 32, 2-((1-(2,7-dimethyl-3-(4-(3-methylbutanoyl)piperazin-1-yl)-1-oxo-1,2-dihydroisoquinolin-5-yl)ethyl)amino)benzoic acid], the EC50 in experiment [1] was more than 15 µM; in experiment [3] (Homo sapiens, SK-BR-3, 72 h) it was more than 15 µM. Moreover, the IC50 was more than 15 µM in experiment [2] and more than 15 µM in experiment [4] (Homo sapiens, SK-BR-3, 6 h).

In the case of `Cc1cc(C(C)Nc2ccccc2C(=O)O)c2cc(N3CCN(C(=O)CC(C)C)CC3)n(C)c(=O)c2c1` (single isomer, unassigned) [Example 33, 2-((1-(2,7-dimethyl-3-(4-(3-methylbutanoyl)piperazin-1-yl)-1-oxo-1,2-dihydroisoquinolin-5-yl)ethyl)amino)benzoic acid], the EC50 in experiment [1] was 0.001 to 0.5 µM; in experiment [3] (72 hours), more than 15 µM. The concentration for half-maximal inhibition (IC50) in experiment [2] is 0.001 to 0.5 µM; in experiment [4] (6 hours), more than 15 µM.

Take `Cc1cc(C(C)Nc2ccccc2C(=O)O)c2cc(C#Cc3ccccc3)n(C)c(=O)c2c1` (single isomer, unassigned) [Example 35, 2-((1-(2,7-dimethyl-1-oxo-3-(phenylethynyl)-1,2-dihydroisoquinolin-5-yl)ethyl)amino)benzoic acid]: the EC50 in experiment [1] was more than 15 µM; in experiment [3] (Homo sapiens, SK-BR-3, 72 h), more than 15 µM. Further, the IC50 in experiment [2] was more than 15 µM; in experiment [4] (Homo sapiens, SK-BR-3, 6 h) it was more than 15 µM.

Take `Cc1cc(C(C)Nc2ccccc2C(=O)O)c2cc(C#Cc3ccccc3)n(C)c(=O)c2c1` (single isomer, unassigned) [Example 36, 2-((1-(2,7-dimethyl-1-oxo-3-(phenylethynyl)-1,2-dihydroisoquinolin-5-yl)ethyl)amino)benzoic acid]: the concentration for a half-maximal effect (EC50) in experiment [1] was 0.001 to 0.5 µM; in experiment [3] (72 hours), more than 15 µM. Besides, the half-inhibitory concentration (IC50) in experiment [2] was 0.001 to 0.5 µM; in experiment [4] (6 hours), more than 15 µM.

Turning to `Cc1cc(C(CF)Nc2ccccc2C(=O)O)c2cc(N3CCN(CC(F)(F)F)CC3)n(C)c(=O)c2c1` (single isomer, unassigned) [Example 37, 2-((1-(2,7-dimethyl-1-oxo-3-(4-(2,2,2-trifluoroethyl)piperazin-1-yl)-1,2-dihydroisoquinolin-5-yl)-2-fluoroethyl)amino)benzoic acid], the EC50 is 2 to 15 µM in experiment [1] and more than 15 µM in experiment [3] (Homo sapiens, SK-BR-3, 72 h). Moreover, the IC50 in experiment [2] is 2 to 15 µM; in experiment [4] (Homo sapiens, SK-BR-3, 6 h), more than 15 µM.

For the compound `Cc1cc(C(CF)Nc2ccccc2C(=O)O)c2cc(N3CCN(CC(F)(F)F)CC3)n(C)c(=O)c2c1` (single isomer, unassigned) [Example 38, 2-((1-(2,7-dimethyl-1-oxo-3-(4-(2,2,2-trifluoroethyl)piperazin-1-yl)-1,2-dihydroisoquinolin-5-yl)-2-fluoroethyl)amino)benzoic acid], the EC50 in experiment [1] is 0.001 to 0.5 µM; in experiment [3] (72 hours), more than 15 µM. Further, the concentration for half-maximal inhibition (IC50) was 0.001 to 0.5 µM in experiment [2] and more than 15 µM in experiment [4] (6 hours).

For `Cc1cc(C(C)Nc2ccccc2C(=O)O)c2cc(N3Cc4ccc(F)cc4C3)n(C)c(=O)c2c1` (single isomer, unassigned) [Example 49], the EC50 is 0.001 to 0.5 µM in experiment [1] and more than 15 µM in experiment [3] (Homo sapiens, SK-BR-3, 72 h). Besides, the IC50 in experiment [2] (Homo sapiens, T47D, 6 h) was 0.001 to 0.5 µM; in experiment [4] (Homo sapiens, SK-BR-3, 6 h) it was more than 15 µM.

Regarding `Cc1cc(C(C)Nc2ccccc2C(=O)O)c2cc(N3CC(c4ccccc4)C3)n(C)c(=O)c2c1` (single isomer, unassigned) [Example 76], the concentration for a half-maximal effect (EC50) in experiment [1] is more than 15 µM; in experiment [3] (Homo sapiens, SK-BR-3, 72 h) it was more than 15 µM. Besides, the IC50 in experiment [2] was more than 15 µM; in experiment [4] (Homo sapiens, SK-BR-3, 6 h) it was more than 15 µM.
